Consider three compounds from publication PMC4506092, “Utilizing Chemical Genomics to Identify Cytochrome b as a Novel Drug Target for Chagas Disease” (PLoS Pathogens, 2015).

Data set [1] has as its system T. cruzi intracellular amastigotes (wild-type). As to the kind of experiment: T. cruzi intracellular amastigote efficacy assay in NIH/3T3 cells, wild-type strain. The following applies: Trypanosoma cruzi, NIH3T3, intracellular amastigotes in NIH/3T3, 48-hour treatment, read-out: Amastigote EC50, WT. The format is cell-based. The protocol: (§1) To determine compound efficacy on T. cruzi intracellular amastigotes, NIH/3T3 cells were seeded (1,000 cells / well, 40 μL) into microscopy-grade, clear bottom, 384-well plates (Greiner) in RPMI-1640 medium containing 5% heat-inactivated fetal bovine serum and 100 IU penicillin / 100 μg streptomycin per mL. Plates were incubated overnight at 37°C / 5% CO2. Cells were infected with T. cruzi trypomastigotes at a multiplicity of infection (MOI) of 10 for the wild-type strain, and 20 for the GNF7686-resistant mutant strain. After six hours of infection (at 37°C / 5% CO2), the plates were washed by aspirating the medium and replacing with fresh screening medium to remove remaining extracellular trypomastigotes. The plates with infected cells were incubated overnight (37°C / 5% CO2) and compounds dissolved in DMSO were added to plate wells on the following day (0.2% DMSO final concentration). […] The plates were then scanned using the Evotec Opera High Content Screening System (Perkin Elmer) and amastigote proliferation was assessed by counting parasites within the 3T3 cells using CellProfiler version 2.1.0 cell image analysis software. […]

Data set [2] deals with T. cruzi intracellular amastigotes (GNF7686-resistant, DR). As to the kind of experiment: T. cruzi intracellular amastigote efficacy assay in NIH/3T3 cells, GNF7686-resistant strain. The format is cell-based. The settings on record: Trypanosoma cruzi, NIH3T3, intracellular amastigotes in NIH/3T3, 48-hour treatment. The protocol:
as §1

Data set [3] deals with T. cruzi mutant complex III (cytochrome b L197F). As to the kind of experiment: T. cruzi complex III activity (decylubiquinol / cytochrome c reaction), GNF7686-resistant. The data set is classed as biochemical, Trypanosoma cruzi. The settings on record: digitonin-permeabilized epimastigotes. The protocol: (§2) T. cruzi epimastigotes ([…], density of 5 × 10^7 parasites / mL) were harvested by centrifugation (800 × g for 5 minutes at 4°C) and resuspended at 10 mg / mL of protein in buffer A containing 0.1 mg digitonin / mg protein. The parasites were then incubated with the detergent for 10 minutes at 26°C. The pellet fraction was collected by centrifugation (13,000 × g for 5 min at 4°C) and immediately used in the complex III assay.
(§3) Complex III activity was monitored using a coupled decylubiquinol / cytochrome c reaction. Decylubiquinone was first reduced to decylubiquinol as described. […] The reduction of cytochrome c was monitored at 550 nm using the SpectraMax Plus384 absorbance microplate reader. Blank samples containing all components excluding decylubiquinol were processed in parallel and absorbance values were subtracted from sample absorbance values to specifically measure […] reduction of cytochrome c. All sample and blank wells were prepared in triplicate. For IC50 determination, the slope of the linear portion of the corrected respiration trace was determined, and normalized to the slope obtained for 0.2% DMSO condition.

Data set [4] concerns T. cruzi epimastigote respiration (GNF7686-resistant, DR). As to the kind of experiment: T. cruzi epimastigote respiration (oxygen consumption, MitoXpress-Xtra), GNF7686-resistant. The following applies: for IC50: Trypanosoma cruzi, intact epimastigotes. The format is cell-based, Trypanosoma cruzi. The protocol: GNF7686 and cytochrome b inhibitors (0.2% DMS0 final concentration) were added to 384-well assay plates containing 20 μL of assay buffer (250 mM sucrose, 15 mM KCl, 5 mM MgCl2, 1 mM EGTA, 30 mM K2HPO4, pH 7.4) and allowed to dissolve for two hours. Meanwhile, T. cruzi epimastigotes were harvested (800 × g for 5 min at 4°C), washed twice with buffer A (10 mM Tris-HCl, pH = 7.4, 0.23 M mannitol, 0.07 M sucrose, 0.2 mM EDTA, 0.2% bovine serum albumin, 0.5 mM phenylmethanesulfonyl fluoride), and finally resuspended in buffer A at a final concentration of 150 × 10^6 epimastigotes / mL. Next, 20 μL of T. cruzi epimastigote suspension (3 x 10^6 parasites) was added to each sample well, and then 15 μL of MitoXpress-Xtra probe (Cayman Chemicals) was added (final assay volume of 60 μL). Probe phosphorescence is quenched in the presence of oxygen and is inversely proportional to the amount of oxygen present in the solution. HS mineral oil (20 μL, Cayman Chemicals) was added to wells to prevent oxygen exchange between the assay buffer and air. Blank wells containing assay buffer without parasites, corresponding compound, and mineral oil were prepared in parallel and values were subtracted from sample values to specifically measure changes in oxygen concentration caused by parasite respiration. All sample and blank wells were prepared in duplicate. The assay plate was transferred to a Gemini XPS fluorescence plate reader (Molecular Devices) and read at 3 minute intervals at excitation and emission wavelengths of 380 nm and 650 nm, respectively, for 30 minutes at 37°C. The slope for the linear portion of time course of fluorescence increase (rate of oxygen consumption) was calculated after subtraction of blank well values. Obtained slope values were normalized to the slope obtained for 0.2% DMSO, and plotted against the corresponding compound concentration for half maximal inhibitory concentration (IC50) value determination.

Data set [5] concerns rat skeletal muscle mitochondria respiration. As to the kind of experiment: Respiration of isolated rat skeletal muscle mitochondria (oxygen consumption). The format is biochemical. The settings on record: mitochondria from rat skeletal muscle. The protocol: GNF7686 and cytochrome b inhibitors (0.2% DMS0 final concentration) were added to 384-well assay plates containing 20 μL of assay buffer (250 mM sucrose, 15 mM KCl, 5 mM MgCl2, 1 mM EGTA, 30 mM K2HPO4, pH 7.4) and allowed to dissolve for two hours. Meanwhile, T. cruzi epimastigotes were harvested (800 × g for 5 min at 4°C), washed twice with buffer A (10 mM Tris-HCl, pH = 7.4, 0.23 M mannitol, 0.07 M sucrose, 0.2 mM EDTA, 0.2% bovine serum albumin, 0.5 mM phenylmethanesulfonyl fluoride), and finally resuspended in buffer A at a final concentration of 150 × 10^6 epimastigotes / mL. […] The assay plate was transferred to a Gemini XPS fluorescence plate reader (Molecular Devices) and read at 3 minute intervals at excitation and emission wavelengths of 380 nm and 650 nm, respectively, for 30 minutes at 37°C. The slope for the linear portion of time course of fluorescence increase (rate of oxygen consumption) was calculated after subtraction of blank well values. […]
Sprague Dawley rats were euthanized and skeletal muscle (from hind legs) was removed and stored in CP1 buffer (0.1 M KCl, 0.05 M Tris, 2 mM EGTA, pH 7.4 at 4°C) on ice. […] Respiration in isolated rat mitochondria was measured using the same protocol as described for T. cruzi epimastigotes using 150 μg protein / sample.

Data set [6] addresses T. cruzi cytochrome bc1 (complex III), wild-type (Trypanosoma cruzi, UniProt Q9TED7). As to the kind of experiment: T. cruzi complex III activity (decylubiquinol / cytochrome c reaction), wild-type. The data set is classed as biochemical. The settings on record: digitonin-permeabilized epimastigotes. The protocol:
as §2, §3

The nature of the next data set: in vivo. The following applies: mouse.

Chain of T. cruzi cytochrome bc1 (complex III), wild-type (Q4DU59 entry or part of it): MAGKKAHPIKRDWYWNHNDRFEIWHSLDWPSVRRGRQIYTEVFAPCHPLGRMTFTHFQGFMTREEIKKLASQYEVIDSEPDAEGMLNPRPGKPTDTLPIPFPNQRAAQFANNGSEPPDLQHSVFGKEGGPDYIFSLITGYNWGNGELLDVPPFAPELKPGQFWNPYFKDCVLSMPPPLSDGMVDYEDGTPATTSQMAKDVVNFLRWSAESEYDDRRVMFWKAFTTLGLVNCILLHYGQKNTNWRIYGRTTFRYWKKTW
Chain of T. cruzi cytochrome bc1 (complex III), wild-type (Q9TED7 entry or part of it): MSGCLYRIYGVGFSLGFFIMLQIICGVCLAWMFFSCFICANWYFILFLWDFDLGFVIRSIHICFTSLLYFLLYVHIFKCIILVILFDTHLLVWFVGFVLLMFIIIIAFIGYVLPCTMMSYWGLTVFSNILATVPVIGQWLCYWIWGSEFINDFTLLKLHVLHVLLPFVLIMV

For the compound `O=C(Cn1ccnc1[N+](=O)[O-])NCc1ccccc1` [Benznidazole], the EC50 – broadly, the concentration needed to bring the measured effect to its halfway point – in data set [1] was determined as 1400 ± 170 nM; in data set [2] it was 820 ± 130 nM.

With `CCCCCC[C@H]1C(=O)O[C@H](C)[C@H](NC(=O)c2cccc(NC=O)c2O)C(=O)O[C@@H](C)[C@@H]1OC(=O)CC(C)C` [Antimycin A], the “Loss of potency on complex III, mutant vs wild-type” value in data set [3] is given as ~ 100 fold. Also, in data set [4], the “Loss of potency on respiration, GNF7686-resistant vs wild-type” value was ~ 7 fold and the IC50 amounted to 270 nM. In data set [5] (read-out: Rat mitochondrial respiration IC50), the IC50 was 810 nM.

For `CCc1c(C)c(C#N)c2nc3ccccc3n2c1O` [GNF7686], the “Loss of potency on complex III, mutant vs wild-type” value in data set [3] was determined as 20 fold. Also, the IC50 in data set [4] came to 5200 nM; in data set [6] it was 400 nM. The EC50 was determined as 150 ± 30 nM in data set [1] and 660 ± 120 nM in data set [2]. In addition, the clearance – broadly, the volume of plasma or blood freed of the substance per unit of time – in “in vivo” stood at 53 mL/min/kg. In “in vivo” (po), the bioavailability (usually dose-corrected exposure relative to a reference, in per cent) is 6%. The “Mammalian (rat) mitochondrial respiration: no effect on oxygen consumption up to” value in data set [5] was greater than 25 µM.
